Data on five compounds can be found in ChEMBL document CHEMBL1201862, “PubChem BioAssay data set” (2004).

In experiment [1] the target is T1, Short transient receptor potential channel 4 (Mus musculus, UniProt Q9QUQ5).
T1 sequence (Q9QUQ5 whole entry): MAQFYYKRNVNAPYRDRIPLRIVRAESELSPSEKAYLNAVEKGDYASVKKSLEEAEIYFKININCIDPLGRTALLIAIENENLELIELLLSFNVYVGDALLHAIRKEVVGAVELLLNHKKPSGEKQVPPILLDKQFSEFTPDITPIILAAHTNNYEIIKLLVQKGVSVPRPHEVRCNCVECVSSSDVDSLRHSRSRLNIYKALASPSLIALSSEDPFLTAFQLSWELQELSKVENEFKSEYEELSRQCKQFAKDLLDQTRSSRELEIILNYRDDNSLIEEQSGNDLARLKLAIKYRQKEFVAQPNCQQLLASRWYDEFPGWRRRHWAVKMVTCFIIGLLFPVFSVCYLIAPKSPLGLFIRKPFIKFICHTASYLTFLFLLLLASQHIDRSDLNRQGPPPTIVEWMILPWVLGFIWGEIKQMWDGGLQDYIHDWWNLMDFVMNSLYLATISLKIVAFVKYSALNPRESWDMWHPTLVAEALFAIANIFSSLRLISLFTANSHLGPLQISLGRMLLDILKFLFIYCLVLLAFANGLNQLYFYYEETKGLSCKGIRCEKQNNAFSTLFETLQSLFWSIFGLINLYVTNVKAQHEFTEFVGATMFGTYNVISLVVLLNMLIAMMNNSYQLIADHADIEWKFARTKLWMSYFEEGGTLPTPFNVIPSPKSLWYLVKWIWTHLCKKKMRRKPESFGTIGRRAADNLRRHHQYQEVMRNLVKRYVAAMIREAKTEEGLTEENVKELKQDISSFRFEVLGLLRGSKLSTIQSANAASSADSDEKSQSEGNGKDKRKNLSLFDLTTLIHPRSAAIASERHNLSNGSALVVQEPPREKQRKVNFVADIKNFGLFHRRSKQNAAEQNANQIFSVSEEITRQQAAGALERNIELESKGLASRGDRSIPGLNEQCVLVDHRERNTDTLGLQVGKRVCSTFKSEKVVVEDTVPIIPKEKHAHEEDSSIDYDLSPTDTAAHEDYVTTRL
Briefly: calcium entry via TRPC4 opening agents – cell-based, HEK293 TRPC4/mu-opioid, Fluo-4 calcium, dose response (AID 434937). Type of experiment: functional.

The target in experiment [2] is T2, Delta-type opioid receptor (Homo sapiens, UniProt P41143). Description: Counterscreen for agonists of heterodimerization of the mu 1 (OPRM1) and delta 1 (OPRD1) opioid receptors: Luminescence-based cell-based high throughput dose response assay to identify agonists of OPRD1 homodimerization. [Related pubchem assays (depositor defined):AID504326, AID504355, AID504692, AID504904, AID504905]. In kind it is functional.

The target of experiment [3] is T3, Mu-type opioid receptor (Homo sapiens, UniProt P35372). Description: Counterscreen for agonists of heterodimerization of the mu 1 (OPRM1) and delta 1 (OPRD1) opioid receptors: Luminescence-based cell-based high throughput dose response assay to identify agonists of OPRM1 homodimerization. In kind it is functional.
In experiment [4] the target is 5-hydroxytryptamine receptor 5A (Homo sapiens, UniProt P47898). Briefly: Counterscreen for agonists of OPRM1-OPRD1 heterodimerization: luminescence-based cell-based high throughput dose response assay to identify agonists of 5-hydroxytryptamine (serotonin) 5A receptor (HTR5A). [Related pubchem assays (depositor defined):AID504326, AID504355, AID504692, AID504904, AID504905]. In kind it is functional.

The nature of experiment [5]: Trypanosoma cruzi growth suppression in host cells – NIH3T3 host cells, beta-gal luminescence, confirmation (AID 2044).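 Note: intracellular parasites grown in NIH/3T3 mouse fibroblasts as host cells; luminescent beta-galactosidase reporter signal from transgenic T. cruzi replicating inside host cells; inhibitors lower the luminescence signal.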 In kind it is functional, cell-based.
Experiment [6] in a line: NIH3T3 cell viability loss – ATP luminescence, mouse fibroblasts, counter-screen, dose response (AID 2010).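 Note: cells exposed to compound for about 90 hours before reading.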 Type of experiment: functional, cell-based. In general terms: Counterscreens check selectivity or assay interference.
The next experiment relates to Jurkat. Description: blockers of NF-kB activation in T cells – Jurkat, luciferase reporter, luminescence, B- and T-cell, dose response (AID 489004).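 Note: NF-kB luciferase reporter Jurkat cells stimulated with PMA plus ionomycin.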 In kind it is functional, cell-based. The conditions noted are these: Homo sapiens. On the technique in general: A reporter such as luciferase makes a cellular process visible.
Experiment [7] in a line: HEK-293T viability loss, compound-treated – cell-based, uHTS hits, cytotoxicity control for B/T-cell NF-kB inhibitor project, dose response (AID 489019).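 Note: IC50 reflects cytotoxicity as loss of cell viability.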 In kind it is functional.
A further experiment relates to INS1. Description: INS-1E survival protection against cytokine death – cell-based, luminescence, retest, dose response (AID 449756).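 Note: cell death triggered by IL-1 beta plus TNF-alpha plus IFN-gamma mixture; protective hits raise ATP signal compared with cytokine alone wells.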 In kind it is functional. Particulars: Rattus norvegicus.
Experiment [8] deals with T3, Mu-type opioid receptor. Description: SAR Analysis of Antagonists of the MOR Receptor using an Image-Based Assay - Set 2. [Related pubchem assays (depositor defined):AID1777, AID1785, AID1786, AID1966, AID2133, AID2136, AID2284, AID2285, AID2420]. In kind it is functional.
Experiment [9] addresses T4, Kappa-type opioid receptor (Homo sapiens, UniProt P41145). Briefly: SAR analysis of Antagonists of the Kappa Opioid Receptor (KOR) using an Image-Based Assay - Set 2. [Related pubchem assays (depositor defined):AID1777, AID1785, AID1786, AID1966, AID2133, AID2136, AID2284, AID2285, AID2348]. Type of experiment: functional.
For experiment [10], the target named is T3, Mu-type opioid receptor. Briefly: SAR Analysis of Agonists of the MOR Receptor using an Image-Based Assay - Set 2. [Related pubchem assays (depositor defined):AID1777, AID1785, AID1786, AID1966, AID2133, AID2136, AID2284, AID2285, AID2352]. Type of experiment: functional.
Experiment [11] concerns the target T4, Kappa-type opioid receptor. Description: SAR analysis of small molecule agonists of the kappa opioid receptor via a luminescent beta-arrestin assay - Set 2. [Related pubchem assays (depositor defined):AID1777, AID1785, AID1786, AID1966, AID2133, AID2136, AID2284, AID449737]. In kind it is functional.
Experiment [12] deals with T2, Delta-type opioid receptor. Description: SAR Analysis of Agonists of the DOR Receptor using an Image-Based Assay - Set 2. [Related pubchem assays (depositor defined):AID1777, AID1785, AID1786, AID1966, AID2133, AID2136, AID2284, AID2285, AID2370]. In kind it is functional.
The target of experiment [13] is T2, Delta-type opioid receptor. Description: SAR Analysis of Antagonists of the DOR Receptor using an Image-Based Assay - Set 2. [Related pubchem assays (depositor defined):AID1777, AID1785, AID1786, AID1966, AID2133, AID2136, AID2284, AID2285, AID2357]. Type of experiment: functional.
Experiment [14] deals with T4, Kappa-type opioid receptor. Description: SAR analysis of Agonists of the Kappa Opioid Receptor (KOR) using an Image-Based Assay - Set 2. [Related pubchem assays (depositor defined):AID1777, AID1786, AID1966, AID2133, AID2136, AID2284, AID2285, AID2359]. Type of experiment: functional.
The target of experiment [15] is Voltage-dependent T-type calcium channel subunit alpha-1H (Homo sapiens, UniProt O95180). Briefly: inhibition of CACNA1H calcium flux – cell-based, SynthLib3 library, HEK293 Cav3.2, fluorescence (AID 493041). Type of experiment: functional. In general terms: Calcium flux is commonly read through the fluorescence of an indicator in the cells.
The nature of experiment [16]: T. cruzi infection blockers in NIH3T3 cells – beta-gal luminescence, NIH3T3 host cells, confirmation (AID 2630). Type of experiment: functional, cell-based. Particulars: Mus musculus.

Activity calls are given as the source filed them. Unless noted, no cut-off for these calls is given here. Bounds are passed on as bounds.

The EC50 is the concentration that produces a half-maximal response. As a reminder, the IC50 is the midpoint of a concentration-inhibition curve. The AC50 is the midpoint of the concentration-response curve, whichever way the signal moves.

T2 sequence (P41143 whole entry): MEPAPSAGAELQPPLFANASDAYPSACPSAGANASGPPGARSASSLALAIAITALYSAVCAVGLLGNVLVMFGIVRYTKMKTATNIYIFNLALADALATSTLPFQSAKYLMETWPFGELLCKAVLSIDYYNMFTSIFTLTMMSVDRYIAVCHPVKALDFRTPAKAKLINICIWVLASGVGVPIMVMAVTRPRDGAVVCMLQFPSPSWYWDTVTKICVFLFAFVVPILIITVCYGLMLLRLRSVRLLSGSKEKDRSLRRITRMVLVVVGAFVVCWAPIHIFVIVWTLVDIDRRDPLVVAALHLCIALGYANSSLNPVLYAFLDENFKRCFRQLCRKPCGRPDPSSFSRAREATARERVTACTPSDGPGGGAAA
T3 sequence (P35372 whole entry): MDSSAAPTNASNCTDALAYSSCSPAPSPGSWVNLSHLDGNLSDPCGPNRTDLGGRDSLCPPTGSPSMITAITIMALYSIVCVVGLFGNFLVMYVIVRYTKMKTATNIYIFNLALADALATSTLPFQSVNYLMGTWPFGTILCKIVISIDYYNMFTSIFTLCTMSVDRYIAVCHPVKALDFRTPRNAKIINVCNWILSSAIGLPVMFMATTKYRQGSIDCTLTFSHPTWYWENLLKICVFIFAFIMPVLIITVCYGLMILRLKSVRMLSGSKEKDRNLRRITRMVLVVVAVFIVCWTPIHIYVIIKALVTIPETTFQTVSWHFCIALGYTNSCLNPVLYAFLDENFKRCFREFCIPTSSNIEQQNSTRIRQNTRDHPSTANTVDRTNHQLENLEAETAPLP
T4 sequence (P41145 whole entry): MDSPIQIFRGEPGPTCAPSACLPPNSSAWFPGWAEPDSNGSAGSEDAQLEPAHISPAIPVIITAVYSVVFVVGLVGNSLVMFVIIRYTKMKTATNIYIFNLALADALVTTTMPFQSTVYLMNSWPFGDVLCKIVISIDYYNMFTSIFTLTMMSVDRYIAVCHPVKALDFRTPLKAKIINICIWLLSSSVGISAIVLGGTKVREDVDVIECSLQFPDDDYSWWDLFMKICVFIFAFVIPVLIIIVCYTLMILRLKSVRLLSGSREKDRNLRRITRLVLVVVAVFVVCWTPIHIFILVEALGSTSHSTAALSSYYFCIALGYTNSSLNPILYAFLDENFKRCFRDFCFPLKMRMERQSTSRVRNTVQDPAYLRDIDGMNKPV
Sequence of Voltage-dependent T-type calcium channel subunit alpha-1H (O95180 whole entry): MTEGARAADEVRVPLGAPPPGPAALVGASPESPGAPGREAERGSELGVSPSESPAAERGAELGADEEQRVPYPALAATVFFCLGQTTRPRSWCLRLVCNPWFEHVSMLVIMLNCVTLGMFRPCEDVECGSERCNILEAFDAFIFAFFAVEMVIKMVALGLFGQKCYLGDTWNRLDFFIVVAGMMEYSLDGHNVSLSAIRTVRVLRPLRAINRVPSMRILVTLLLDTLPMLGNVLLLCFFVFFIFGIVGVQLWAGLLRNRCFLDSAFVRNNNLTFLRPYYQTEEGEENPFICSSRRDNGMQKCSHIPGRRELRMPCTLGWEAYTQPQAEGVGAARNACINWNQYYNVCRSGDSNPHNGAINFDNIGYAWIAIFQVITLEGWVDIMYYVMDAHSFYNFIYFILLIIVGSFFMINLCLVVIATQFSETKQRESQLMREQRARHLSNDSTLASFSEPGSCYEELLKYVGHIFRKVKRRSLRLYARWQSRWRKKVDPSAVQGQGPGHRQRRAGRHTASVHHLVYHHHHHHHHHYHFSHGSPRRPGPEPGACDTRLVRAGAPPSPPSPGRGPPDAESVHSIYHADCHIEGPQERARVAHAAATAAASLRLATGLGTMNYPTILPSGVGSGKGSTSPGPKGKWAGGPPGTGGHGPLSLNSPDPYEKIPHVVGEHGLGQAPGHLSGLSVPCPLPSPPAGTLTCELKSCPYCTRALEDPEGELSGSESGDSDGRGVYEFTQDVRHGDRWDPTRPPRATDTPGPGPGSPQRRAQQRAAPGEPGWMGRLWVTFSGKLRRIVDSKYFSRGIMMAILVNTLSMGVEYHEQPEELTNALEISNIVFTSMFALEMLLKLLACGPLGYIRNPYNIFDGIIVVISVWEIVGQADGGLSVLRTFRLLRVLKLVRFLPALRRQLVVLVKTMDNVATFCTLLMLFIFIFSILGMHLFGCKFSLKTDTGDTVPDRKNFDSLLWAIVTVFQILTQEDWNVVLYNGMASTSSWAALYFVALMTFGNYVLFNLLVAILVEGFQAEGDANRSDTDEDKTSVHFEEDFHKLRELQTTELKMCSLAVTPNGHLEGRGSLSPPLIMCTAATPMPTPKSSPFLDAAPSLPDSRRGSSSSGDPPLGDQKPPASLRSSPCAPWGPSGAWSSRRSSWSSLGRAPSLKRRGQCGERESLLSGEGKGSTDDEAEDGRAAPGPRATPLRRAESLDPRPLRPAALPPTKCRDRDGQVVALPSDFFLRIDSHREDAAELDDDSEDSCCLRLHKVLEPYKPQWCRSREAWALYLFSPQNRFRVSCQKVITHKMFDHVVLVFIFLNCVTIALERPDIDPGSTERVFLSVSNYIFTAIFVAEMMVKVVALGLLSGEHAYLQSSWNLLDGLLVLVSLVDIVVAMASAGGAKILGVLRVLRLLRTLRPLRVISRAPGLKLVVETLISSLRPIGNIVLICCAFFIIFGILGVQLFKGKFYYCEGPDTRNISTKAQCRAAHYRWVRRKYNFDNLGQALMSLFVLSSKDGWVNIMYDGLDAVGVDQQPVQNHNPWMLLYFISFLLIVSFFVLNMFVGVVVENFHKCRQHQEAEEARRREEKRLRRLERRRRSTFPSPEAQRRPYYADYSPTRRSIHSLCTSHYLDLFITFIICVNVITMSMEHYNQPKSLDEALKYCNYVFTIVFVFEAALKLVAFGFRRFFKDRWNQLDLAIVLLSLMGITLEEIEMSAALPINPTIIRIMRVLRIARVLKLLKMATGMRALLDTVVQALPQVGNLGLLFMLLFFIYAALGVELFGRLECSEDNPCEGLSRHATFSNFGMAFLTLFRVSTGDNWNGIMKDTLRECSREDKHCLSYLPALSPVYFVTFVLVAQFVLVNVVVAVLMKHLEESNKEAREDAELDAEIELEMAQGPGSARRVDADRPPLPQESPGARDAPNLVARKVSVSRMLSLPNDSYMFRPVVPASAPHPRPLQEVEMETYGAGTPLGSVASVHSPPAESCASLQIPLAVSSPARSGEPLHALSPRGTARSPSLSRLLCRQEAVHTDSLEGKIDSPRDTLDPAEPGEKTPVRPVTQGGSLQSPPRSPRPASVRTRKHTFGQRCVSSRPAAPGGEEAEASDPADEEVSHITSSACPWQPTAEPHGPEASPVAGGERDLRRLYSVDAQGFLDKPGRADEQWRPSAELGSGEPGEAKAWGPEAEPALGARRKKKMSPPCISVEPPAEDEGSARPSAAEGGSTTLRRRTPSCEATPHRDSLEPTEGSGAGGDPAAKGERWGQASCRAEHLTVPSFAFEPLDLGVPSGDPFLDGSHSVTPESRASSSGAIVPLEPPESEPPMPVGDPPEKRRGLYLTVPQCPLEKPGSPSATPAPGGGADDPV
Sequence of 5-hydroxytryptamine receptor 5A (P47898 whole entry): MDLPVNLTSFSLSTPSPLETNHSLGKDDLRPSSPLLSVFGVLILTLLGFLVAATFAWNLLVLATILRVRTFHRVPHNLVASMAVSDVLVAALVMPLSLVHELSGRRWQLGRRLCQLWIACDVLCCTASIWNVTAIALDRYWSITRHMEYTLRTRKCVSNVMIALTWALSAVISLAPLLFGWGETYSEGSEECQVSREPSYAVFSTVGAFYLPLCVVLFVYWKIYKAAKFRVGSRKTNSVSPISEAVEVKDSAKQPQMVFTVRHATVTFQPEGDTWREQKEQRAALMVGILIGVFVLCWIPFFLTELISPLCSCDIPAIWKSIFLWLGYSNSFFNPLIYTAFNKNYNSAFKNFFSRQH

`CN1C(CC(=O)Nc2ccc(Br)cc2)c2ccccc2CC1(C)C` (stereo not drawn): the EC50 is 2.11 µM (active) in experiment [1], 86.4 µM (inactive) in experiment [2], > 92.5 µM (inactive) at Mu-type opioid receptor [3] and > 92.5 µM (inactive) in experiment [4].

As to `N=c1c2c(n(Cc3ccc(Br)cc3)c3c1CCC3)CCCC2`, the EC50 in experiment [5] is 260 nM (active); in experiment [6] it was > 60 µM (inconclusive). Moreover, the IC50 in the experiment with Jurkat is 24.6 µM (inactive); in [7], > 80 µM (inactive). The AC50 in the experiment with INS1 is 2.64 µM (active).

On to `Fc1ccc(CSc2nnc(-c3ccccn3)n2Cc2cccs2)c(F)c1`, for which the IC50 (on Mu-type opioid receptor [8]; in experiment [9]; in experiment [13]) was > 32 µM (inactive) each time. The EC50 on Mu-type opioid receptor [10] is > 32 µM (inactive); in [11], 6.73 µM (active); in experiment [12], > 32 µM (inactive); in experiment [14], 5.68 µM (active).

As for `CC(C)CN1C[C@@H]2C(CNC(=O)c3cc(Cl)cc(Cl)c3)[C@@H]2C1` (stereo partly drawn), the EC50 in [15] was 10 µM (active).

On to `COc1ccc(C(=O)C2CCCN(CCc3ccccc3)C2)cc1OC` (stereo not drawn), for which, in experiment [16], the EC50 was 55.8 nM (active).
